# According to US20170280720A1, “ARGININE […] INHIBITORS AND USES THEREOF” (EPIZYME, INC., priority 2014, published 2017):
# Legend:
# Human CARM1 (PRMT4) = target: T1, Human CARM1 (PRMT4) (Homo sapiens, UniProt Q86X55); experiment: CARM1 biochemical assay (3H-SAM Flashplate, peptide substrate); conditions: read-out: CARM1_ IC50
# T1 construct: Flag-CARM1-His; made in house; host or cells: HEK 293F cells (BacMam baculovirus, pFastBacMam)
# T1 sequence (Q86X55 2-585 isoform Q86X55-1): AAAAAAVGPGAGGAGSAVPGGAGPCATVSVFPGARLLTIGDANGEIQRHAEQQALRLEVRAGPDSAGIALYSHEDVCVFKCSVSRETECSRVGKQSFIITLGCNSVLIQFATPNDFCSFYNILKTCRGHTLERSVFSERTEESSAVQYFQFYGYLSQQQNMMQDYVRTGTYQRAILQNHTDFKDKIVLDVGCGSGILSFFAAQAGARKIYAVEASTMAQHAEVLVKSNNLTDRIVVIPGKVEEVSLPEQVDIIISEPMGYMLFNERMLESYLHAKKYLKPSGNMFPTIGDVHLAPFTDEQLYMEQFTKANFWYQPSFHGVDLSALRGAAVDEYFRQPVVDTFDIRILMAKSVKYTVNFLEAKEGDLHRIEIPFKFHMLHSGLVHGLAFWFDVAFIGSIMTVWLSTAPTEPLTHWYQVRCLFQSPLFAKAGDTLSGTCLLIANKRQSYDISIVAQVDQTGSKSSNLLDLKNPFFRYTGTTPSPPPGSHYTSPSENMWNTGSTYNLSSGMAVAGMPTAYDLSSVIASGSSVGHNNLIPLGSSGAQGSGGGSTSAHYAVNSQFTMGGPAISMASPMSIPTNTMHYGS
# Summary of the method: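 FLAG/His-tagged human CARM1 (isoform 1, Δ539-561, baculovirus-expressed), 0.25 nM, preincubated 30 min at room temperature with compound (2% DMSO) in 20 mM Bicine pH 7.6, then reacted with 30 nM 3H-SAM and 250 nM biotinylated H3 16-30 peptide (R26 monomethyl). Stopped with 300 uM cold SAM; labelled peptide captured on streptavidin Flashplate; % inhibition versus DMSO and 1 mM SAH controls fitted to a 4- or 3-parameter curve.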
# PRMT5 = PRMT5 (Homo sapiens, UniProt O14744); experiment: PRMT5 IC50 (Table 2; no method described); format: biochemical; conditions: read-out: PRMT5_ IC50
# [1] = tested on: asymmetric di-methyl PABP1 in RKO cells; experiment: In Cell Western (ICW) for asymmetric di-methyl PABP1 and DNA content in RKO cells; format: cell-based; conditions: Homo sapiens, RKO
# Summary of the method: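 RKO cells treated with compound for 48 h at 37 °C, then fixed, methanol-permeabilized and stained for asymmetric di-methyl PABP1 (800 nm) with DRAQ5 DNA stain (700 nm). Signal ratio normalized to DMSO and 20 μM reference-compound controls. IC50 from nine 3-fold dilutions in triplicate.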
# PRMT5, sequence (O14744 whole entry, species assumed): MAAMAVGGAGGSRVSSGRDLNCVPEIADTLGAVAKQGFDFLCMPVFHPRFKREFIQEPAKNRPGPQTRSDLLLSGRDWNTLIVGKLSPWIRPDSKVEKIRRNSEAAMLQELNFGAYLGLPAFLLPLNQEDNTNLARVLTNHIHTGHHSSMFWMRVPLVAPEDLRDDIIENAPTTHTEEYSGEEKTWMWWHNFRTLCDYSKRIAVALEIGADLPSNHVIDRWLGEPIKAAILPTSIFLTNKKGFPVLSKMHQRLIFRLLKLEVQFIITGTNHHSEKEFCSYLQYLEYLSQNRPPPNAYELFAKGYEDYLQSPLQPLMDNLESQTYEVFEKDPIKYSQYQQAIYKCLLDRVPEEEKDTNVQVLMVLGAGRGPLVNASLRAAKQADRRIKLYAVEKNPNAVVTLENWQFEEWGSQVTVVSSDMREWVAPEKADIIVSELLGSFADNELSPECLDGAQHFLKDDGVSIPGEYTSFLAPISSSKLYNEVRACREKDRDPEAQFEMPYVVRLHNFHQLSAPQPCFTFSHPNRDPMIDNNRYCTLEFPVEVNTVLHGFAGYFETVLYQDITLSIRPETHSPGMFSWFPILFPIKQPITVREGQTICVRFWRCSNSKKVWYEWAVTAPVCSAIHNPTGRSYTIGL
# PRMT5, sequence (Q9BQA1 whole entry partner, species assumed): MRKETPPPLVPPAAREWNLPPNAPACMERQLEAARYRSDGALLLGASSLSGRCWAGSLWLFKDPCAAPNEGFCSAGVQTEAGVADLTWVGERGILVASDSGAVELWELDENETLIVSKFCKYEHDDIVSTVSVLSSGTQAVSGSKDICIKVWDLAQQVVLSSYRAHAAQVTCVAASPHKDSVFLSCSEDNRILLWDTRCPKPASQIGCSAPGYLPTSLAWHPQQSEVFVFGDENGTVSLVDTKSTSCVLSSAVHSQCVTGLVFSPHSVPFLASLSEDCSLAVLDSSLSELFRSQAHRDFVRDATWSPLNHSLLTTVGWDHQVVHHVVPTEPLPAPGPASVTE
SMILES,IC50 (Human CARM1 (PRMT4)),IC50 (PRMT5),IC50 ([1]; In Cell Western),IC50 ([1]; 48 h)
CC(C)n1ncc2c(C(=O)N(C)[C@@H](C)c3ccccc3)cc(-c3cccc(CN(C)CCN)c3)nc21 [Compound 193],13.5 nM,790 nM,–,–
NCCNCc1ccc(-c2ccc3cnn(C4CCNCC4)c3c2)cc1 [Compound 351],–,235 nM,–,–
CC(=O)N1CCC(Cn2ncc3ccc(-c4ccc(CNCCN)cc4)cc32)CC1 [Compound 353],–,351 nM,–,–
CNCCN(C)Cc1cccc(-c2cc(C(=O)N(C)Cc3cccc(Cl)c3)c3cnn(C(C)C)c3n2)c1 [Compound 237],48.1 nM,1480 nM,–,–
CC(C)(C)C(=O)Cn1cnc2cc(-c3ccc(CNCCN)cc3)ccc21 [Compound 354],–,452 nM,–,–
CC(C)n1ncc2c(C(=O)N(C)Cc3cccc(F)c3)cc(-c3cccc(CN(C)CCN)c3)nc21 [Compound 287],153 nM,4170 nM,–,–
CNCCN(C)Cc1cccc(-c2cc(C(=O)N(C)Cc3cccc(F)c3)c3cnn(C(C)C)c3n2)c1 [Compound 244],53.1 nM,2830 nM,–,–
CNCCN(C)Cc1cccc(-c2cc(C(=O)N(C)C(C)c3ccccc3)c3cnn(C(C)C)c3n2)c1 (stereo not shown) [Compound 246],54.3 nM,577 nM,–,–
CN1CCN(C(=O)c2cccc(Cn3ncc4ccc(-c5ccc(CNCCN)cc5)cc43)c2)CC1 [Compound 335],3510 nM,73.8 nM,–,–
CNCCN(C)Cc1cccc(-c2cc(C(=O)N[C@@H](C)c3ccccc3)c3cnn(Cc4ccccc4)c3n2)c1 [Compound 281],128 nM,17400 nM,–,–
CN(CCc1ccccn1)C(=O)c1cncc(-c2ccc(CNCCN)cc2)c1 [Compound 357],–,393 nM,–,–
CNCCN(C)Cc1cccc(-c2cc(C(=O)N(C)Cc3ccc(F)cc3)c3cnn(C(C)C)c3n2)c1 [Compound 278],110 nM,8730 nM,–,–
CN1CCCC(Cn2cnc3ccc(-c4ccc(CNCCN)cc4)cc32)C1 (stereo not shown) [Compound 338],5530 nM,439 nM,–,–
CC(C)n1ncc2c(C(=O)NCc3cccc(F)c3)cc(-c3cccc(CN(C)CCN)c3)nc21 [Compound 251],59.1 nM,47300 nM,–,–
Cc1cc(C)c(CN2Cc3ccc(-c4ccc(CNCCN)cc4)cc3C2=O)c(=O)[nH]1 [Compound 390],17500 nM,472 nM,–,–
CC(C)n1ncc2c(C(=O)N(C)Cc3ccccc3)cc(-c3cccc(CNCCN)c3)nc21 [Compound 238],48.1 nM,–,20000 nM,–
CNCCN(C)Cc1cccc(-c2cc(C(=O)NCC3CCOCC3)c3cnn(CC(F)(F)F)c3n2)c1 [Compound 277],105 nM,–,7200 nM,–
CNCCN(C)Cc1cccc(-c2cc(C(=O)N(C)C3CC3)c3cnn(C(C)C)c3n2)c1 [Compound 292],171 nM,–,14000 nM,–

SMILES,IC50 (Human CARM1 (PRMT4)),IC50 (PRMT5),IC50 ([1]; In Cell Western),IC50 ([1]; 48 h)
CNCCN(C)Cc1cccc(-c2cc(C(=O)NCc3cccc4ccnn34)c3cnn(C(C)C)c3n2)c1 [Compound 232],42.4 nM,–,1510 nM,–
CC(C)n1ncc2c(C(=O)NCC3CCOCC3)cc(-c3cccc(CN(C)CCNC4CCC4)c3)nc21 [Compound 273],87.7 nM,–,14500 nM,–
NCCNCc1ccc(-c2ccc3cnn(Cc4ccncc4)c3c2)cc1 [Compound 350],–,172 nM,–,–
CCN(c1cc(-c2cccc(CN(C)CCNC)c2)cc(C(=O)NCc2c(C)cc(C)[nH]c2=O)c1C)C1CCOCC1 [Compound 387],97.2 nM,–,–,10900 nM
CNCCN(C)Cc1cccc(-c2cc(C(=O)NCc3nccs3)c3cnn(C(C)C)c3n2)c1 [Compound 207],20.6 nM,–,1640 nM,–
CNCCN(C)Cc1cccc(-c2cc(C(=O)NCc3cnc4ccccn34)c3cnn(C(C)C)c3n2)c1 [Compound 176],7.29 nM,–,865 nM,–
CC(C)n1ncc2c(C(=O)NC3CCOCC3)cc(-c3cccc(CN(C)CCNC4CC4)c3)nc21 [Compound 295],181 nM,–,12400 nM,–
CNCCN(C)Cc1cccc(-c2cc(C(=O)NCc3cccnc3)c3cnn(C(C)C)c3n2)c1 [Compound 199],15.9 nM,–,2180 nM,–
CNCCN(C)Cc1cccc(-c2cc(NC(=O)OC)c3cnn(C(C)C)c3n2)c1 [Compound 190],12.5 nM,–,2460 nM,–
CC(=O)N1CCC(Cn2cnc3ccc(-c4ccc(CNCCN)cc4)cc32)CC1 [Compound 352],–,325 nM,–,–
CNCCN(C)Cc1cccc(-c2cc(C3=CCOCC3)c3cnn(C(C)C)c3n2)c1 [Compound 188],12.3 nM,–,8310 nM,–
CNCCN(C)Cc1cccc(-c2cc(C(=O)NCc3ccc(F)cc3)c3cnn(C(C)C)c3n2)c1 [Compound 276],94.1 nM,–,20000 nM,–
CC(C)n1ncc2c(C(=O)NCc3cn(C)cn3)cc(-c3cccc(CN(C)CCN)c3)nc21 [Compound 262],70.2 nM,–,10200 nM,–
CC(C)n1ncc2c(C(=O)N(C)Cc3cccnc3)cc(-c3cccc(CN(C)CCN)c3)nc21 [Compound 224],37.5 nM,–,8470 nM,–
COC1CCN(C(=O)c2cc(-c3cccc(CN(C)CCN)c3)nc3c2cnn3C(C)C)C1 (stereo not shown) [Compound 274],89.3 nM,–,20000 nM,–
CN(CCN)Cc1cccc(-c2ccc(C(=O)NC3CCOCC3)c(N(C)CC3CC3)c2)c1 [Compound 245],53.6 nM,–,20000 nM,–
CN(CCN)Cc1cccc(-c2cc(C(=O)NC3CCOCC3)cc(N(C)CC3CC3)c2)c1 [Compound 217],30 nM,–,5690 nM,–

# Further lines, results first:
IC50 (Human CARM1 (PRMT4)),IC50 (PRMT5),IC50 ([1]; In Cell Western),IC50 ([1]; 48 h),SMILES
3060 nM,94.7 nM,–,–,CN1CCN(CCNC(=O)c2cccc(Cn3cnc4ccc(-c5ccc(CNCCN)cc5)cc43)c2)CC1 [Compound 333]
5350 nM,33.3 nM,–,–,NCCNCc1ccc(-c2ccc3ncn(Cc4cccc(C(=O)NCc5ccccc5)c4)c3c2)cc1 [Compound 337]
10000 nM,181 nM,–,–,NCCNCc1ccc(-c2ccc3ncn(Cc4cccc(C(=O)NC5CCOCC5)c4)c3c2)cc1 [Compound 347]
756 nM,127 nM,–,–,NCCNCc1ccc(-c2ccc3ncn(Cc4cccc(C(=O)N5CCCC5)c4)c3c2)cc1 [Compound 323]
6480 nM,110 nM,–,–,NCCNCc1ccc(-c2ccc3ncn(Cc4cccc(C(=O)NC5CC5)c4)c3c2)cc1 [Compound 342]
2480 nM,136 nM,–,–,CN1CCN(C(=O)c2cccc(Cn3cnc4ccc(-c5ccc(CNCCN)cc5)cc43)c2)CC1 [Compound 329]
1600 nM,72.8 nM,–,–,NCCNCc1ccc(-c2ccc3ncn(Cc4cccc(C(=O)NC5CCCCC5)c4)c3c2)cc1 [Compound 327]
5120 nM,66.5 nM,–,–,NCCNCc1ccc(-c2ccc3ncn(CCc4cccc(Cl)c4)c3c2)cc1 [Compound 336]
272 nM,1070 nM,–,–,COc1ccc(Cn2cnc3ccc(-c4cccc(CNCCN)c4)cc32)cc1 [Compound 309]
6080 nM,87.3 nM,–,–,CN(C)C(=O)c1cccc(Cn2cnc3ccc(-c4ccc(CNCCN)cc4)cc32)c1 [Compound 341]
2810 nM,118 nM,–,–,CN1CCCN(C(=O)c2cccc(Cn3cnc4ccc(-c5ccc(CNCCN)cc5)cc43)c2)CC1 [Compound 331]
2840 nM,85.9 nM,–,–,NCCNCc1ccc(-c2ccc3ncn(Cc4cccc(C(=O)NC5CCCC5)c4)c3c2)cc1 [Compound 332]
1030 nM,25.3 nM,–,–,NCCNCc1ccc(-c2ccc3ncn(Cc4cccc(C(=O)NC5CCCc6ccccc65)c4)c3c2)cc1 (stereo not shown) [Compound 325]
2720 nM,52.4 nM,–,–,NCCNCc1ccc(-c2ccc3ncn(Cc4cccc(C(=O)Nc5ccccc5)c4)c3c2)cc1 [Compound 330]
–,117 nM,–,–,NCCNCc1ccc(-c2ccc3cnn(Cc4cccc(C(=O)N5CCOCC5)c4)c3c2)cc1 [Compound 349]
2190 nM,80.5 nM,–,–,NCCNCc1ccc(-c2ccc3ncn(Cc4cccc(C(=O)Nc5cccc6c5CCCC6)c4)c3c2)cc1 [Compound 328]
5940 nM,105 nM,–,–,CS(=O)(=O)c1ccc(Cn2cnc3ccc(-c4ccc(CNCCN)cc4)cc32)cc1 [Compound 340]
3130 nM,467 nM,–,–,NCCNCc1ccc(-c2ccc3cnn(Cc4cccc(Oc5ccccc5)c4)c3c2)cc1 [Compound 334]
887 nM,97.3 nM,–,–,NCCNCc1ccc(-c2ccc3cnn(Cc4cccc(C(=O)N5CCCC5)c4)c3c2)cc1 [Compound 324]
8890 nM,119 nM,–,–,CC(=O)c1cccc(Cn2ncc3ccc(-c4ccc(CNCCN)cc4)cc32)c1 [Compound 343]
